In data set [1] the test system is Respiratory syncytial virus recombinant with luciferase (RSV-Luc5) in HEp-2 cells. Briefly: microbe, parasite or virus in culture. Type of data set: cell-based. Conditions: human respiratory syncytial virus, HEp-2, 72 h, read-out: RSV Hep2 EC50.
The test system of data set [2] is SARS Coronavirus 2 recombinant with NanoLuc (SARS-CoV2-NLuc) in A549-hACE2 cells. The data set can be described thus: organism not typed. Type of data set: cell-based. Conditions: 48 h; read-out: SARS-CoV2 EC50.
Data set [3] can be described thus: CC50 MT4 cytotoxicity (Cell-Titer Glo). Type of data set: cell-based. Conditions: human. The protocol:
Cytotoxicity of the compounds was determined in uninfected cells using the cell viability reagent in a similar fashion as described before for other cell types (Cihlar et al., Antimicrob Agents Chemother. 2008, 52(2):655-65). HEp-2 (1.5×10^3 cells/well) and MT-4 (2×10^3 cells/well) cells were plated in 384-well plates and incubated with the appropriate medium containing 3-fold serially diluted compound ranging from 15 nM to 100,000 nM. Cells were cultured for 4-5 days at 37° C. Following the incubation, the cells were allowed to equilibrate to 25° C., and cell viability was determined by adding Cell-Titer Glo viability reagent. The mixture was incubated for 10 min, and the luminescence signal was quantified using an Envision plate reader. Untreated cell and cells treated at 2 μM puromycin (Sigma, St. Louis, MO) serve as 100% and 0% cell viability control, respectively. The percent of cell viability was calculated for each tested compound concentration relative to the 0% and 100% controls and the CCso value was determined by non-linear regression as a compound concentration reducing the cell viability by 50%.

For data set [4], the system named is Caco-2 cells (clone C2BBe1). The data set can be described thus: CACO-2 permeability. Type of data set: in vitro ADME. Also noted: unit not given here. The settings on record: for DM Caco2 A to B: apical to basolateral, donor pH 6.5, receiver pH 7.4; for DM Caco2 B to A: basolateral to apical. The method, then: Pre-plated Caco-2 cells (clone C2BBel) were obtained from Sigma-Aldrich, Inc. (Atlanta, GA). Cell monolayers were grown to confluence on collagen-coated, microporous, polycarbonate membranes in 24-well transwell plates for 21 days. The permeability assay buffer in donor wells was Hanks' balanced salt solution (HBSS) containing 10 mM HEPES and 15 mM glucose at a pH of 6.5 containing 200 μM BNPP. The receiver wells used HBSS buffer containing 10 mM HEPES and 15 mM glucose at a pH of 7.4 and supplemented with 1°% BSA. After an initial equilibration with transport buffer, TEER values were read to test membrane integrity. The experiment was started by the addition of buffers containing test compounds, 200 μl and 1000 μl in the apical and basolateral chamber, respectively. At 0- and 2-hour post dose, 10 μL was sampled from donor compartment and was immediately diluted in 190 μL of 20% methanol. At 1 and 2 hours post dose, 100 μl of solution was taken from the receiver compartments and was immediately diluted in 100 μl of 20% methanol. Removed buffer was replaced with fresh buffer and a correction was applied to all calculations for the removed material. Each compound was tested in 2 separate replicate wells for each condition. All samples were then extracted with 400 μl 100% acetonitrile with internal standard to precipitate protein. Cells were dosed on the apical or basolateral side to determine forward (A to B) and reverse (B to A) permeability. To test for non-specific binding and compound instability, the total amount of drug was quantitated at the end of the experiment and compared to the material present in the original dosing solution as a percent recovery. […] Samples were analyzed by LC-MS/MS.

Another data set can be described thus: Plasma stability. On the set-up: unit not given here. The settings on record: 37° C., 2 μM substrate. Type of data set: in vitro ADME. The protocol:
At 0.05, 0.5, 1, 2, 3 and 4 hr, […] aliquots of the reaction mixture were transferred to plates containing […] of IS/Q quenching solution. After quenching, the plates were centrifuged at 3000 g for 30 minutes, and 150 μL supernatant was diluted with 150 μL water. Aliquots ([…]) of the diluted supernatant were analyzed on a Thermo Q-Exactive mass spectrometer as described below.
Mobile phase A consisted of 0.1% (v/v) formic acid in water. Mobile phase B consisted of 0.1% (v/v) formic acid in acetonitrile. Elution of analytes was achieved by a series of linear gradients of acetonitrile in water containing 0.1°(v/v) formic acid. The mass spectrometer was calibrated on a weekly basis and mass tolerance of 5 ppm was used.

A short description of data set [5]: GI S9 stability - no PMSF. Type of data set: in vitro ADME. Conditions: pH 7.4; human intestinal S9, PMSF-free; read-out: GIS9-HUMAN-NoPMSF T1/2. The method, then:
Duplicate aliquots of test compound or positive control substrate (GS-7340) were added to S9 stock diluted with 100 mM phosphate buffered saline, pH 7.4, to obtain a protein concentration of 1.0 mg/mL. The S9 metabolic reactions were initiated by the addition of the substrates to the S9 reaction mixture to a final concentration of 2 μM. At 0, 10, 20, 30, 60 and 120 min, […] aliquots of the reaction mixture were transferred to plates containing […] of IS/Q solution. After quenching, the plates were centrifuged at 3000 g for 30 minutes, and 150 μL aliquots of each supernatant were diluted with 150 μL water. Aliquots ([…]) of the diluted supernatant were analyzed on a Thermo Q-Exactive mass spectrometer as described below. GI S9 Stability—No phenylmethylsulfonyl fluoride (PMSF): Similar to the procedure described above, test compounds were incubated at 2 μM with 1 mg/mL PMSF-free Intestinal S9 fractions. Samples are removed at 6 time points over the course of a 120 min experiment and the parent compound disappreance and reference compound A formation is determined by mass spectrometry.
Example K: Liquid Chromatography/Mass Spectroscopy Methods for S9 and Plasma Stability
Quantification of test compounds, Reference Compound A (S9 stability assay nucleoside metabolite), and controls was performed by analyte/internal standard peak area ratio (PAR) values measured on a Thermo Q-Exactive mass spectrometer coupled to a Dionex UltiMate 3000 HPLC with a Leap Technologies HTC PAL autosampler. The column used for analysis of test compounds and Reference Compound A was a Waters Acquity BEH C18 ([…] particle size, 2.1′50 mm). The column used for control (GS-7340) was a Thermo Hypersil GOLD ([…] particle size, 2.1′50 mm). Mobile phase A consisted of 0.1% (v/v) formic acid in water. Mobile phase B consisted of 0.1% (v/v) formic acid in acetonitrile. Elution of analytes was achieved by a series of linear gradients of acetonitrile in water containing 0.1°(v/v) formic acid. The mass spectrometer was calibrated on a weekly basis and mass tolerance of 5 ppm was used.

In data set [6] the test system is Respiratory syncytial virus recombinant with luciferase (RSV-Luc5) in Normal Human Bronchial Epithelial (NHBE) cells. Briefly: microbe, parasite or virus in culture. Type of data set: cell-based. Conditions: 72 h, read-out: RSV NHBE EC50.

SMILES strings stand for the structures.

Consider ten compounds from patent US12448383B2, “Compounds and methods for treatment of viral infections” (priority 2022, dated 2025).

In general, EC50 refers to the concentration needed to bring the measured effect to its halfway point. One may read the CC50 as the concentration at which the toxic effect on the cells reaches its halfway point. Regarding `N#C[C@@]1(c2ccc3c(N)ncnn23)O[C@H](COC(=O)OC2CCC(F)(F)CC2)[C@@H](O)[C@H]1O` [Compound 84, ((2R,3S,4R,5R)-5-(4-aminopyrrolo[2,1-f][1,2,4]triazin-7-yl)-5-cyano-3,4-dihydroxytetrahydrofuran-2-yl)methyl (4,4-difluorocyclohexyl) carbonate], the values for the 50% effective concentration (EC50) in data set [1], in data set [2] and in data set [6] were 311 nM, 1540 nM and 205 nM, respectively. Also, the CC50 in data set [3] was above 50 µM. Further, the “DM Caco2 A to B” value in data set [4] is 0.27. The “DM Caco2 B to A” value in data set [4] was determined as 6.99. Further, the “STA Human Plasma 37” value in the data set “Plasma stability” is listed as 327.2. Moreover, the half-life at 2 µM in data set [5] came to 0.955 min.

In the case of `CC(C)(C)COC(=O)OC[C@H]1O[C@@](C#N)(c2ccc3c(=N)n(COP(=O)(O)OCc4ccccc4)cnn23)[C@H](O)[C@@H]1O` [Compound 18, ((2R,3S,4R,5R)-5-(3-((((benzyloxy)(hydroxy)phosphoryl)oxy)methyl)-4-imino-3,4-dihydropyrrolo[2,1-f][1,2,4]triazin-7-yl)-5-cyano-3,4-dihydroxytetrahydrofuran-2-yl)methyl neopentyl carbonate], the half-maximal effective concentration (EC50) was 2870 nM in data set [1], 12400 nM in data set [2] and 12100 nM in data set [6]. Moreover, the CC50 in data set [3] is above 50 µM.

Turning to `N#C[C@@]1(c2ccc3c(N)ncnn23)O[C@H](COC(=O)OCC2CCCCC2)[C@@H](O)[C@H]1O` [Compound 86, ((2R,3S,4R,5R)-5-(4-aminopyrrolo[2,1-f][1,2,4]triazin-7-yl)-5-cyano-3,4-dihydroxytetrahydrofuran-2-yl)methyl (cyclohexylmethyl) carbonate], the concentration giving a half-maximal response (EC50) came to 371 nM in data set [1], 623 nM in data set [2] and 1220 nM in data set [6]. The same compound returned a CC50 in data set [3] above 50 µM. The “STA Human Plasma 37” value in “Plasma stability” turned out to be 48.6. Further, in data set [5], the half-life at 2 µM was 0.684 min.

As to `CCCCCOC(=O)OC[C@H]1O[C@@](C#N)(c2ccc3c(N)ncnn23)[C@H](O)[C@@H]1O` [Compound 27, ((2R,3S,4R,5R)-5-(4-aminopyrrolo[2,1-f][1,2,4]triazin-7-yl)-5-cyano-3,4-dihydroxytetrahydrofuran-2-yl)methyl pentyl carbonate], the EC50 in data set [1] came to 145 nM; in data set [2] it was 658 nM; in data set [6], 1010 nM. In data set [3], this compound returned a 50% cytotoxic concentration (CC50) above 50 µM.

Regarding `CC[C@@H](C)OC(=O)OC[C@H]1O[C@@](C#N)(c2ccc3c(N)ncnn23)[C@H](O)[C@@H]1O` [Compound 89, ((2R,3S,4R,5R)-5-(4-aminopyrrolo[2,1-f][1,2,4]triazin-7-yl)-5-cyano-3,4-dihydroxytetrahydrofuran-2-yl)methyl ((R)-sec-butyl) carbonate], the half-maximal effective concentration (EC50) in data set [1] came out at 665 nM; in data set [2], 2690 nM; in data set [6] it was 978 nM. For the same compound, the CC50 in data set [3] was above 50 µM. Besides, in “Plasma stability”, the “STA Human Plasma 37” value is recorded as 188.5. The half-life at 2 µM in data set [5] was 0.59 min.

For the compound `N#C[C@@]1(c2ccc3c(N)ncnn23)O[C@H](COC(=O)OC2CNC2)[C@@H](O)[C@H]1O` [Compound 20, ((2R,3S,4R,5R)-5-(4-aminopyrrolo[2,1-f][1,2,4]triazin-7-yl)-5-cyano-3,4-dihydroxytetrahydrofuran-2-yl)methyl azetidin-3-yl carbonate], the concentration for a half-maximal effect (EC50) came to 2020 nM in data set [1], 8980 nM in data set [2] and 4350 nM in data set [6]. Besides, in data set [3], the 50% cytotoxic concentration (CC50) was above 50 µM.

With `CC(C)COC(=O)OC[C@H]1O[C@@](C#N)(c2ccc3c(N)ncnn23)[C@@H]2OC(=O)O[C@@H]21` [Compound 17, ((3aR,4R,6R,6aR)-6-(4-aminopyrrolo[2,1-f][1,2,4]triazin-7-yl)-6-cyano-2-oxotetrahydrofuro[3,4-d][1,3]dioxol-4-yl)methyl isobutyl carbonate], the results for the EC50 in data set [1], in data set [2] and in data set [6] were 412 nM, 814 nM and 1900 nM, respectively. The compound further showed a CC50 in data set [3] above 50 µM.

Take `CC(C)OC(=O)OC[C@H]1O[C@@](C#N)(c2ccc3c(N)ncnn23)[C@@H]2OC(c3ccccc3)O[C@@H]21` (stereo partly drawn) [Compound 100, [(3aR,4R,6R,6aR)-4-(4-aminopyrrolo[2,1-f][1,2,4]triazin-7-yl)-4-cyano-2-phenyl-6,6a-dihydro-3aH-furo[3,4-d][1,3]dioxol-6-yl]methyl isopropyl carbonate]: the EC50 was above 50000 nM in data set [1] and 16000 nM in data set [6]. The half-maximal cytotoxic concentration (CC50) in data set [3] is above 50 µM. Moreover, the “DM Caco2 A to B” value in data set [4] was 11.73. The “DM Caco2 B to A” value in data set [4] is given as 22.71.

For the compound `N#C[C@@]1(c2ccc3c(N)ncnn23)O[C@H](COC(=O)OCC2CCCC2)[C@@H](O)[C@H]1O` [Compound 85, ((2R,3S,4R,5R)-5-(4-aminopyrrolo[2,1-f][1,2,4]triazin-7-yl)-5-cyano-3,4-dihydroxytetrahydrofuran-2-yl)methyl (cyclopentylmethyl) carbonate], the values for the EC50 in data set [1], in data set [2] and in data set [6] were 166 nM, 417 nM and 776 nM, respectively. In data set [3], this compound gave a CC50 above 50 µM. Besides, the “STA Human Plasma 37” value in “Plasma stability” is on record as 38.6. In addition, the half-life at 2 µM in data set [5] came out at 0.621 min.

With `COC(=O)O[C@H]1[C@@H](OC(=O)OC)[C@](C#N)(c2ccc3c(N)ncnn23)O[C@@H]1COC(=O)OC(C)C` [Compound 135, (2R,3R,4R,5R)-2-(4-aminopyrrolo[2,1-f][1,2,4]triazin-7-yl)-2-cyano-5-(((isopropoxycarbonyl)oxy)methyl)tetrahydrofuran-3,4-diyl dimethyl bis(carbonate)], the half-maximal effective concentration (EC50) in data set [2] and in data set [6] was above 50000 nM throughout. The CC50 in data set [3] was above 50 µM. Also, the “DM Caco2 A to B” value in data set [4] is 3.87. Also, in data set [4], the “DM Caco2 B to A” value is listed as 18.05. In the data set “Plasma stability”, the “STA Human Plasma 37” value is 96.462. In data set [5], the half-life at 2 µM is 0.653 min.
